Data on eight compounds can be found in US11866460B2 (priority 2015, dated 2024).

Data set [1] has as its system HIV-1US/92/727. Conditions: human PBMCs.
Data set [2] relates to human PBMCs.
Data set [3] relates to HSV-1. In words: microbe, parasite or virus in culture. Conditions: Human alphaherpesvirus 1, Vero.
Data set [4] deals with Haemophilus influenzae. In words: microbe, parasite or virus in culture. The class given is cell-based.
Data set [5] concerns Clostridium difficile. In words: microbe, parasite or virus in culture. The class given is cell-based. Conditions: Clostridioides difficile, 48 h.
Data set [6] relates to Propionibacterium acnes. In words: microbe, parasite or virus in culture. The data set is classed as cell-based. Conditions: Cutibacterium acnes, 48 h.
Data set [7] concerns RVFV MP12. As to the kind of experiment: microbe, parasite or virus in culture. The settings on record: Rift Valley fever virus, Vero, 0 h.
Data set [8] concerns DENV-2 New Guinea C. In words: microbe, parasite or virus in culture. The settings on record: Dengue virus, DENV2, Vero.
Data set [9] has as its system LACV H44-71017. As to the kind of experiment: organism not typed. The class given is cell-based, LaCrosse encephalitis virus. Conditions: Vero.
Data set [10] concerns DENV-1 PRS41393. In words: microbe, parasite or virus in culture. Conditions: Dengue virus, DENV1, Vero.
The subject of data set [11] is Vero cells. Conditions: African green monkey.
Data set [12] relates to YFV 17D.
Data set [13] is described as follows: in vitro. The settings on record: African green monkey, CC50.
For data set [14], the system named is DENV-3 H87. As to the kind of experiment: microbe, parasite or virus in culture. The settings on record: Dengue virus, DENV3, Vero, 0 h.
Data set [15] concerns DENV-4 H241. In words: microbe, parasite or virus in culture. The settings on record: Dengue virus, DENV4, Vero.
Data set [16] concerns DENV-2 New Guinea C.
Data set [17] has as its system YFV 17D. As to the kind of experiment: microbe, parasite or virus in culture. The settings on record: Yellow fever virus, Vero.
The test system of data set [18] is DENV-4 H241.
For data set [19], the system named is JUNV Candid #1. In words: microbe, parasite or virus in culture. Conditions: Mammarenavirus juninense, Vero.
Data set [20] deals with ZIKV FSS 13025. Conditions: read-out: IC50, yield reduction; Vero cells, day 3.
Data set [21] concerns ZIKV FSS 13025. Conditions: read-out: IC50 (PRNT50), plaque reduction; Vero cells, day 4.
Data set [22] concerns influenza A/Hong Kong/1/1968 virus (H3N2). As to the kind of experiment: microbe, parasite or virus in culture. Conditions: H3N2, MDCK.
In data set [23] the test system is Caco-2 cells.
Data set [24] has as its system ME180 cells.
Data set [25] has as its system Ca Ski cells.
Data set [26] has as its system HIV-1RF. The class given is cell-based.
Data set [27] has as its system HEC1A cells.
The test system of data set [28] is Streptococcus agalactiae.
The test system of data set [29] is Enterococcus faecalis (VSE).
Data set [30] relates to CHIKV 181/25. Conditions: 0 h.
Data set [31] concerns DENV-1 PRS41393. The settings on record: -1 PRS41393, 0 h.
Data set [32] concerns Streptococcus pneumoniae (PSSP).
Data set [33] relates to Lactobacillus crispatus.
In data set [34] the test system is panel of enveloped viruses (DENV, JEV, YFV, CHIKV and others). Conditions: panel of enveloped viruses (, JEV, YFV, CHIKV and others).
Data set [35] concerns Staphylococcus aureus (MSSA).
Data set [36] has as its system VEEV TC-83. The settings on record: 0 h.
Data set [37] has as its system Marburg virus (MARV).
Data set [38] relates to human erythrocyte cells.
Data set [39] deals with JUNV Candid #1. Conditions: 0 h.
The nature of data set [40]: in vitro. Conditions: Lactobacillus crispatus.
For data set [41], the system named is Streptococcus salivarius.
A short description of data set [42]: in vitro. The settings on record: Lactobacillus jensenii.
The subject of data set [43] is VACV NYCBH. Conditions: 0 h.
Data set [44] in a line: in vitro. The settings on record: Lactobacillus acidophilus.
The nature of data set [45]: in vitro. Conditions: dog.
Data set [46] concerns Vero cells, erythrocyte, epithelial and endometrial cell lines.
Data set [47] has as its system Enterococcus faecalis (VRE).
The test system of data set [48] is Streptococcus pneumoniae (PRSP).
The test system of data set [49] is Streptococcus pyogenes.
In data set [50] the test system is Ebola virus (EBOV).
Data set [51] has as its system Lactobacillus jensenii.
Data set [52] can be described thus: in vitro. The settings on record: human, TC50.
The test system of data set [53] is Lactobacillus acidophilus.
The subject of data set [54] is aerobic Gram-positive bacterial isolates (S. aureus, enterococci, streptococci, and B. anthracis).
Data set [55] has as its system Bacillus anthracis Sterne.
Data set [56] deals with Enterococcus faecium (VRE).
Where [57] appears, read: 0.01 μg/mL during exposure, Day 3.
The mark [58] stands for this setting: 0.01 μg/mL during exposure, Day 6.
[59] abbreviates: 0.1 μg/mL during exposure, Day 3.
Where [60] appears, read: 0.1 μg/mL during exposure, Day 6.
Where [61] appears, read: 10 μg/mL during exposure, Day 3.
Setting [62] is: 10 μg/mL during exposure, Day 6.
[63] abbreviates: 100 μg/mL during exposure, Day 3.
Where [64] appears, read: 100 μg/mL during exposure, Day 6.
Where [65] appears, read: 1000 μg/mL during exposure, Day 3.
Where [66] appears, read: 1000 μg/mL during exposure, Day 6.

≈ marks a conversion by molar mass, not a printed value. Where “and” joins values, the source holds several entries; their conditions need not be identical. Equal entries are not always repeated. Where two headings read alike, the source gives them in different places. Where a SMILES comes first, the peptide text is derived from it. Where no end group is shown, it is not given here. Some results are limits rather than exact numbers.

For `Cc1cn([C@H]2C[C@H](N=[N+]=[N-])[C@@H](CO)O2)c(=O)[nH]c1=O` [AZT], the “TI (TC50/EC50)” value in [1] is above 342.5. In addition, the EC50 in data set [1] (7 days) was 0.0029 µM and 0.00292 µM. In addition, the CC50 in data set [2] was above 1 µM.
As for `Nc1nc2c(ncn2COCCO)c(=O)[nH]1` [Acyclovir], in [3], the EC50 was found to be 2.82 µM.
On to `CCC[C@@H]1C[C@@H](C(=O)N[C@@H]([C@H]2O[C@H](SC)[C@H](O)[C@@H](O)[C@H]2O)[C@H](C)Cl)N(C)C1` [Clindamycin], for which the MIC was 4 µg/mL (≈ 9.41 µM) in data set [4], 1 µg/mL (≈ 2.35 µM) in [5] and at most 0.06 µg/mL in data set [6].
In the case of `NC(=O)c1ncn([C@@H]2O[C@H](CO)[C@@H](O)[C@H]2O)n1` [Ribavirin], the EC50 came to 140 µM in data set [7]; 267 µM in data set [8]; 360 µM in data set [8] (0 h); 161 µM in data set [9]; 143 µM in [9] (0 h); 144 µM in data set [10]. The EC50 is 206 µM in data set [10] (0 h); 212 µM and 170 µM in data set [12]; 176 µM in [14]; 253 µM in data set [15]; 395 µM in data set [15] (0 h); 203 µM and 185 µM in data set [16]. Also, the EC50 in data set [17] is 203 µM; in [17] (0 h) it was 258 µM; in data set [18], 209 µM and 284 µM; in data set [19], 73.2 µM; in data set [19] (0 h), 63.7 µM. In addition, the CC50 was 577 µM in data set [11] and above 750 µM in [13].
For the compound `CC(C)C[C@@H](NC(=O)[C@@H](CCCCN)NC(=O)[C@@H](CO)NC(=O)[C@@H](CCC(N)=O)NC(=O)[C@@H](CC(C)C)NC(=O)[C@@H](Cc1c[nH]c2ccccc12)NC(=O)[C@H](NC(=O)[C@@H](Cc1c[nH]c2ccccc12)NC(=O)[C@H](NC(=O)[C@@H](CC(=O)O)NC(=O)[C@@H](CCCNC(=N)N)NC(=O)[C@@H](CC(C)C)NC(=O)[C@@H](Cc1c[nH]c2ccccc12)NC(=O)[C@@H](CO)NC(=O)CNC(=O)[C@H](N)CO)C(C)C)[C@H](C)O)C(=O)O` [TSG001 D-isomer] (HELM PEPTIDE1{[dS].G.[dS].[dW].[dL].[dR].[dD].[dV].[dW].[dT].[dW].[dL].[dQ].[dS].[dK].[dL]}$$$$V2.0; N-terminus and C-terminus assumed), in [13], the CC50 was 11.7 µM. Besides, the IC50 in data set [20] was 0.646 µM; in [21], 0.49 µM.
In data set [22], `CC(=O)N[C@H]1[C@H]([C@H](O)[C@H](O)CO)OC(C(=O)O)=C[C@@H]1N=C(N)N` [Zanamivir] displayed an EC50 of 4.52 µM.
As for Nonoxynol-9 [Nonoxynol 9], the TC50 in [23] is 55.1 µg/mL; in [24] it was 74.0 µg/mL; in data set [25], 61.3 µg/mL; in data set [27], 62.9 µg/mL. Besides, the “Log Reduction in Virus Titer” value was determined as 0.3 log in data set [26] (setting [57]); 0.5 log in data set [26] (setting [58]); 0.3 log in [26] (setting [59]); 0.7 log in data set [26] (setting [60]); 0.3 log in data set [26] (1 μg/mL during exposure, Day 3); 0 log in data set [26] (1 μg/mL during exposure, Day 6). Besides, the “Log Reduction in Virus Titer” value in [26] (setting [61]) is listed as 0 log; in data set [26] (setting [62]), 0 log; in data set [26] (setting [63]) it was at least 3.3 log; in [26] (setting [64]) it was 2.9 log; in data set [26] (setting [65]), at least 2.8 log; in data set [26] (setting [66]) it was at least 2.7 log. The “TCID50 Sample - Virus” value in [26] (setting [57]) is listed as 5; in data set [26] (setting [58]), 6; in data set [26] (setting [59]), 5; in data set [26] (setting [60]), 5.8; in data set [26] (1 μg/mL during exposure, Day 3), 5; in data set [26] (1 μg/mL during exposure, Day 6), at least 6.6. Further, the “TCID50 Sample - Virus” value is reported as 5.3 in data set [26] (setting [61]); at least 6.6 in [26] (setting [62]); at most 2.0 in data set [26] (setting [63]); 3.6 in data set [26] (setting [64]); at most 2.5 in data set [26] (setting [65]); at most 3.8 in [26] (setting [66]).
With SGSWLRDVWTWLQSKL [TSG001], the MIC in [28] came to 8 µM; in data set [29], 2 µM; in data set [32], 8 µM; in data set [35], 2 µM; in data set [41], 4 µM; in data set [47] it was 4 µM. The MIC in [48] was determined as 8 µM; in data set [49], 4 µM; in data set [55] it was 1 µM; in data set [56], 2 µM. In addition, the concentration for a half-maximal effect (EC50) in [30] is 2.24 µM; in data set [31] it was 3.42 µM; in data set [34], below 3 µM; in data set [36] it was above 12.5 µM; in data set [37], 0.637 µM; in data set [39], above 75 µM. The EC50 in data set [43] is above 12.5 µM; in data set [50] it was 0.934 µM. Moreover, the TC50 result in [33], in [51] and in data set [53] was “non-toxic” each time. Also, the CC50 was 153 µM in data set [11]; above 50 µM in data set [40]; above 50 µM in data set [42]; above 50 µM in [44]; above 200 µM in data set [45]; 37 µM in data set [24] (human). Also, the CC50 in data set [52] turned out to be 37 µM. In addition, the MHC in data set [38] turned out to be 50 µM. The “TI (TC50/EC50)” value in data set [1] came to 8.93. In addition, the “cytotoxicity” value in [46] was “minimal cytotoxicity”. Further, the “MICs, range over isolates” value in data set [54] lay in the range of 2 to 16 µg/mL.
